Results from the PolyMetriX glass transition set.
± gives the standard deviation of the reports.

glass transition temperature	SMILES
190.8 °C	*c1ccc(Sc2ccc(Sc3ccc(N4C(=O)c5ccc(Sc6ccc(Sc7ccc(Sc8ccc9c(c8)C(=O)N(*)C9=O)cc7)cc6)cc5C4=O)cc3)cc2)cc1 (repeat unit)
275.40 °C	*Oc1ccc(S(=O)(=O)c2ccc(Oc3c(C)cc(C(C)(C)c4cc(C)c(*)c(C)c4Br)c(Br)c3C)cc2)cc1 (repeat unit)
212.20 °C	*c1ccc(Oc2ccc(C(=O)c3cccc(C(=O)c4ccc(Oc5ccc(N6C(=O)c7ccc(Oc8ccc9c(c8)C(=O)N(*)C9=O)cc7C6=O)cc5C(F)(F)F)cc4)n3)cc2)c(C(F)(F)F)c1 (repeat unit)
68.00 °C	*CCC[Si](C)(C)O[Si](C)(C)CCCN1C(=O)c2ccc(C(=O)c3ccc4c(c3)C(=O)N(*)C4=O)cc2C1=O (repeat unit)
-94.00 °C	*O[Si](C)(C)O[Si](C)(C)O[Si](C)(C)OC(C)CCCCC(*)C (repeat unit)
66.00 °C	*Oc1ccc(CC(NC(=O)Cc2ccc(OC(=O)COCC(*)=O)cc2)C(=O)OCC)cc1 (repeat unit)
206.00 ± 1.4 °C	*c1cccc(Oc2cccc(N3C(=O)c4ccc(Oc5ccc6c(c5)C(=O)N(*)C6=O)cc4C3=O)c2)c1 (repeat unit)
376.00 °C	*C(=O)Nc1cc(C(F)(F)F)ccc1Oc1cccc2c(Oc3ccc(C(F)(F)F)cc3NC(=O)c3ccc4c(c3)C(=O)N(c3ccc(Oc5ccc(N6C(=O)c7ccc(*)cc7C6=O)cc5-c5ccccc5)c(-c5ccccc5)c3)C4=O)cccc12 (repeat unit)
330.00 °C	*c1ccc2c(c1)C(=O)N(c1cc(C(c3ccc(O)c(N4C(=O)c5ccc(C(*)(C(F)(F)F)C(F)(F)F)cc5C4=O)c3)(C(F)(F)F)C(F)(F)F)ccc1O)C2=O (repeat unit)
223.00 °C	*/C=C/c1ccc(*)c(OCc2cc(OCc3cc(OCCC(C)CCCC(C)C)cc(OCCC(C)CCCC(C)C)c3)cc(OCc3cc(OCC(CC)CCCC)cc(OCC(CC)CCCC)c3)c2)c1 (repeat unit)
4.00 °C	*CCOCCOCCOCCOC(=O)c1ccc(-c2ccc(C(=O)O*)cc2)cc1 (repeat unit)
193.00 °C	*c1ccc(Oc2ccc(N3C(=O)C(Cl)=C(Oc4ccc(C(c5ccc(OC6=C(Cl)C(=O)N(*)C6=O)cc5)(C(F)(F)F)C(F)(F)F)cc4)C3=O)cc2)cc1 (repeat unit)
181.00 °C	*Oc1ccc(C2(c3ccc(OC(=O)CCCC(*)=O)cc3)c3cc(N(C)C)ccc3-c3ccc([N+](=O)[O-])cc32)cc1 (repeat unit)
180.00 °C	*CC1CCCC(CNC(=O)c2cccc(C(=O)N*)c2)C1 (repeat unit)
222.00 °C	*C(=O)Nc1ccc(Cc2ccc(NC(=O)c3ccc(N4C(=O)c5ccc(*)cc5C4=O)cc3)cc2)cc1 (repeat unit)
121.42 ± 2.3 °C	*CCOC(=O)c1ccc2cc(C(=O)O*)ccc2c1 (repeat unit) [Poly(ethylene 2,6-naphthalate)]
395.00 °C	*c1ccc(-c2nc3cc4nc(*)c(-c5ccccc5)nc4cc3nc2-c2ccccc2)cc1 (repeat unit)
288.00 °C	*C(=O)Nc1c(C)cc(C)c(NC(=O)c2ccc3c(c2)C(=O)N(c2c(C)cc(C)c(N4C(=O)c5ccc(*)cc5C4=O)c2C)C3=O)c1C (repeat unit)
235.00 °C	*Oc1ccc(S(=O)(=O)c2ccc(Oc3ccc(/C=C4\CC/C(=C\c5ccc(*)cc5)C4=O)cc3)cc2)cc1 (repeat unit)
203.00 °C	*c1ccc(Oc2ccc(C(c3ccc(Oc4ccc(-c5nnc(*)n5-c5ccccc5)cc4)cc3)(C(F)(F)F)C(F)(F)F)cc2)cc1 (repeat unit)
177.00 °C	*C(=O)Nc1ccc(Oc2ccc(C(C)(C)c3cccc(C(C)(C)c4ccc(Oc5ccc(N6C(=O)c7ccc(*)cc7C6=O)cc5)cc4)c3)cc2)cc1 (repeat unit)
157.00 °C	*Oc1ccc(Oc2ccc(C(=O)c3ccc(*)cc3)cc2)cc1-c1ccccc1 (repeat unit)
221.00 °C	*Oc1ccc(S(=O)(=O)c2ccc(Oc3ccc(-c4ccc(*)cc4)cc3)cc2)cc1 (repeat unit)
217.00 °C	*OC1C(COC(=O)Nc2ccccc2)OC(*)C(OC(=O)Nc2ccccc2)C1OC(=O)Nc1ccccc1 (repeat unit)
92.00 °C	*CC(*)(C)C(=O)OCCOC(=O)c1cc([N+](=O)[O-])cc([N+](=O)[O-])c1 (repeat unit)
105.00 °C	*Oc1ccc(OC(=O)c2ccc(C(*)=O)cc2Oc2ccccc2)cc1 (repeat unit)

Continued, compound first:

SMILES	glass transition temperature
*C(=O)Nc1ccc(C(=O)c2ccc(NC(=O)c3ccc4c(c3)C(=O)N(c3ccc(NC(=O)Nc5ccc(N6C(=O)c7ccc(*)cc7C6=O)cc5)cc3)C4=O)cc2)cc1 (repeat unit)	212.00 °C
*CC(CCCCCCCCCCCCCCCC)C1C(=O)N(CCCCCCCCCCCC)C(=O)C1* (repeat unit)	30.00 °C
*CCCCCCCCCCCCOc1c(OC)cc(/C=C/c2ccc(/C=C/c3cc(OC)c(O*)c(OC)c3)cc2)cc1OC (repeat unit)	61.10 °C
*CC(*)c1ccc(Cl)cc1C (repeat unit)	145.00 °C
*O[Si](*)(C)CCCOc1ccc(-c2ccc(OC(=O)CCCCC(=O)OC3CC(C)CCC3C(C)C)cc2)cc1 (repeat unit)	43.30 °C
*c1ccc(Oc2ccc(Oc3ccc(N4C(=O)C5CCC6C(=O)N(*)C(=O)C6C5C4=O)cc3)cc2)cc1 (repeat unit)	274.00 °C
*CCCCCCOC(=O)OCCCCCOC(=O)OCCCCCCOc1ccc(C(=O)c2ccc(O*)cc2)cc1 (repeat unit)	-0.20 °C
*c1ccc(-c2cc(CCCCCCCC)c(-c3ccc(-c4ccc(-c5sc(-c6ccc([Si](C)(C)[Si](*)(C)C)s6)cc5CCCCCCCC)s4)s3)s2)s1 (repeat unit)	12.00 °C
*c1ccc(Oc2ccc(-c3nc4cc(-c5ccc6nc(*)c(-c7ccccc7)nc6c5)ccc4nc3-c3ccccc3)cc2)cc1 (repeat unit)	292.50 °C
*CC#CC#CCOc1ccc(C(=O)OCCN(CCOC(=O)c2ccc(O*)cc2)c2ccc(/N=N/c3ccc(/N=N/c4cc(C)c(C#N)c(C)c4)cc3)cc2)cc1 (repeat unit)	120.00 °C
*CC(*)(C)C(=O)OCCCCCCn1c2ccccc2c2ccccc21 (repeat unit)	73.00 °C
*CC(*)c1ccc(C(=O)OCCC)cc1 (repeat unit)	92.00 °C
*c1ccc(Oc2ccc(P(=O)(c3ccccc3)c3ccc(Oc4ccc(-c5ccc(*)nc5)cc4)cc3)cc2)cc1 (repeat unit)	257.00 °C
*CCCCCCCOC(=O)NCCCCCCNC(=O)O* (repeat unit)	55.00 °C
*CC(O)COc1ccc(C(C)(C)c2ccc(OCC(O)COc3cccc(NC(=O)Cc4cccc(CC(=O)Nc5cccc(O*)c5)c4)c3)cc2)cc1 (repeat unit)	119.00 °C
*Oc1ccc(C(c2ccc(Oc3ccc(C(=O)c4c(C(=O)c5ccc(*)cc5)c(-c5ccc(F)cc5)c(-c5ccc(F)cc5)c(-c5ccc(F)cc5)c4-c4ccc(F)cc4)cc3)cc2)(C(F)(F)F)C(F)(F)F)cc1 (repeat unit)	253.00 °C
*Oc1ccc(-c2ccc(Oc3ccc(Oc4cc(Oc5ccc(*)cc5)ccc4CCCCCC)cc3)c3ccccc23)c2ccccc12 (repeat unit)	150.00 °C
*c1ccc2c(c1)C(=O)N(c1cccc(P(=O)(c3ccc(Oc4ccc(C56CC7CC(CC(C7)C5)C6)cc4)cc3)c3cccc(N4C(=O)c5ccc(C(*)(C(F)(F)F)C(F)(F)F)cc5C4=O)c3)c1)C2=O (repeat unit)	298.00 °C

SMILES	glass transition temperature
*CCN(*)C(=O)c1cc(F)ccc1F (repeat unit)	112.00 °C
*Oc1ccc(C2(c3ccc(OC(=O)OC4C(C)(C)C(OC(*)=O)C4(C)C)cc3)CC3CCC2C3)cc1 (repeat unit)	184.00 °C
*c1ccc(Oc2ccc(S(=O)(=O)c3ccc(Oc4ccc(-c5c6c(c(*)c7ccccc57)C(=O)N(c5ccc(Cl)cc5)C6=O)cc4)cc3)cc2)cc1 (repeat unit)	280.00 °C
*CC(*)(C)C(=O)Oc1cc(C)ccc1C (repeat unit)	111.00 °C
*CC(*)(C)C(=O)OCCOCCOCCOCCOc1ccc(/N=N/c2ccc(C#N)cc2)cc1 (repeat unit)	20.00 °C
*OP(=O)(Oc1ccc(OC)cc1)Oc1c(C)cc(S(=O)(=O)c2cc(C)c(*)c(C)c2)cc1C (repeat unit)	147.00 °C
*OP(=O)(Oc1ccc(S(=O)(=O)c2ccc(*)cc2)cc1)OC1CCCCC1 (repeat unit)	120.00 °C
*CCCC(=O)Nc1ccc(Oc2ccc(Oc3ccc(NC(=O)CCCN4C(=O)c5ccc(C(=O)c6ccc7c(c6)C(=O)N(*)C7=O)cc5C4=O)cc3)cc2)cc1 (repeat unit)	178.00 °C
*/C=C/c1cccc(OC(=O)CCCCCCCCC(=O)Oc2ccc(-c3nnc(*)s3)cc2)c1 (repeat unit)	55.00 °C
*CCCCCCCCCCCC(=O)N* (repeat unit) [Poly(dodecano-12-lactam)]	38.4 ± 3.2 °C
*Oc1ccc(OC(=O)c2ccc(C(*)=O)cc2)cc1C1CC2CCC1C2 (repeat unit)	267.00 °C
*CCCCOCCCCOCCCCOC(=O)c1ccc(/N=C/c2ccc(/C=N/c3ccc(C(=O)O*)cc3)cc2)cc1 (repeat unit)	-13.20 °C
*C(=O)Oc1ccc(C(=O)Oc2cccc(OC(=O)c3ccc(OC(=O)c4ccc(*)nc4)cc3)c2)cc1 (repeat unit)	110.00 °C
*CCCCCCCCCCc1ccc(-c2c(-c3ccccc3)cc(-c3ccc(-c4cc(-c5ccccc5)c(-c5ccc(*)cc5)c(-c5ccccc5)c4-c4ccccc4)cc3)c(-c3ccccc3)c2-c2ccccc2)cc1 (repeat unit)	235.00 °C
*CC(*)OCC(C)C (repeat unit) [Poly(isobutyl vinyl ether)]	-22.08 ± 2.5 °C
*CC(*)c1ccc(C(C)(C)O)cc1 (repeat unit)	170.00 °C
*CC(*)c1ccccc1COCCCC (repeat unit)	67.00 °C
